Patent US9050341B2, “Methods of treating drug resistant and other tumors by administering 6,7-dialkoxy quinazoline derivatives” (NATCO PHARMA LIMITED, priority 2009, dated 2015)

Experiments:
Assay in all cases: KinomeScan kinase profiling
Format in all cases: binding
BRSK2 = target: T1, BRSK2 (Homo sapiens, UniProt Q8IWQ3)
T1 construct: purchased Ambit Biosciences Corp (KinomeScan); host or cells: E. coli host derived from the BL21 strain, T7 phage
In short: (§1)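 Kinases were expressed as T7 phage fusions in a BL21-derived E. coli host and the cleared lysates were used. Ligand beads were blocked with biotin and buffer (1% BSA, 0.05% Tween 20, 1 mM DTT). Compounds came from 40× DMSO stocks, and phage in the eluates was titred by qPCR.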

CAMK1 = target: T2, CAMK1 (Homo sapiens, UniProt Q14012)
T2 construct: purchased Ambit Biosciences Corp (KinomeScan); host or cells: E. coli host derived from the BL21 strain, T7 phage
T2 sequence (Q14012 whole entry): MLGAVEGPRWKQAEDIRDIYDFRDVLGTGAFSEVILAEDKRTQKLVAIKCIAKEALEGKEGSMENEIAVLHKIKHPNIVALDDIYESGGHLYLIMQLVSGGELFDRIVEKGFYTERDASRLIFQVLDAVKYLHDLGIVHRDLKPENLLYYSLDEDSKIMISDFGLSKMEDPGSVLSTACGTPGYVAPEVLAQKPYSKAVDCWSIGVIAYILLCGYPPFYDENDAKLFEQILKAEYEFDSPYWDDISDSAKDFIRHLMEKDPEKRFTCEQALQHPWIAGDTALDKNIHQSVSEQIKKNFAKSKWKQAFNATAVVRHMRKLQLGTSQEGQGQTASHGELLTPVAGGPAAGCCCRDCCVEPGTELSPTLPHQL
In short: as §1

CDK11 = target: T3, CDK11 (Homo sapiens, UniProt Q9BWU1)
T3 construct: host or cells: T7 phage in E. coli (BL21-derived)
T3 sequence (Q9BWU1 whole entry): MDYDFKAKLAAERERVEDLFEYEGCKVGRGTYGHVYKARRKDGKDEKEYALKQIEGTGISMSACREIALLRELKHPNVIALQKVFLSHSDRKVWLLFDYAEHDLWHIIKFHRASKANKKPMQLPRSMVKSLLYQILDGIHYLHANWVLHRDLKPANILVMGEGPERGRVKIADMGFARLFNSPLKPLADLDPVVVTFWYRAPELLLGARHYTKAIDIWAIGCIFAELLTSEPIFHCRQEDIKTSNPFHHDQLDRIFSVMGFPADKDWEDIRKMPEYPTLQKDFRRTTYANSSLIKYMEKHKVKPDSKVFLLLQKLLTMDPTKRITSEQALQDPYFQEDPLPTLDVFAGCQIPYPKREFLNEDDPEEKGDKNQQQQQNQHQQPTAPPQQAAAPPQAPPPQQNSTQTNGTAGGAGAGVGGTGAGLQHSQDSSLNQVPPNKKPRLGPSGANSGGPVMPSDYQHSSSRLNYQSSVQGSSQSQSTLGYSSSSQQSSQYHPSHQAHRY
In short: as §1

CIT = target: T4, CIT (Homo sapiens, UniProt O14578)
T4 construct: host or cells: T7 phage in E. coli (BL21-derived)
In short: as §1

DCAMKL3 = target: T5, DCAMKL3 (Homo sapiens, UniProt Q9C098)
T5 construct: purchased Ambit Biosciences Corp (KinomeScan); host or cells: T7 phage in E. coli host derived from BL21
In short: as §1

DRAK1 = target: T6, DRAK1 (Homo sapiens, UniProt Q9UEE5)
T6 construct: purchased Ambit Biosciences Corp (KinomeScan); host or cells: T7 phage in E. coli host derived from BL21
In short: as §1

EGFR (G719S) = target: T7, EGFR (G719S) (Homo sapiens, UniProt P00533, G719S)
T7 construct: purchased Ambit Biosciences Corp (KinomeScan); host or cells: T7 phage in E. coli host derived from BL21
In short: as §1

EPHA4 = target: T8, EPHA4 (Homo sapiens, UniProt P54764)
T8 construct: host or cells: E. coli host derived from BL21, T7 phage lysate
T8 sequence (P54764 20-986): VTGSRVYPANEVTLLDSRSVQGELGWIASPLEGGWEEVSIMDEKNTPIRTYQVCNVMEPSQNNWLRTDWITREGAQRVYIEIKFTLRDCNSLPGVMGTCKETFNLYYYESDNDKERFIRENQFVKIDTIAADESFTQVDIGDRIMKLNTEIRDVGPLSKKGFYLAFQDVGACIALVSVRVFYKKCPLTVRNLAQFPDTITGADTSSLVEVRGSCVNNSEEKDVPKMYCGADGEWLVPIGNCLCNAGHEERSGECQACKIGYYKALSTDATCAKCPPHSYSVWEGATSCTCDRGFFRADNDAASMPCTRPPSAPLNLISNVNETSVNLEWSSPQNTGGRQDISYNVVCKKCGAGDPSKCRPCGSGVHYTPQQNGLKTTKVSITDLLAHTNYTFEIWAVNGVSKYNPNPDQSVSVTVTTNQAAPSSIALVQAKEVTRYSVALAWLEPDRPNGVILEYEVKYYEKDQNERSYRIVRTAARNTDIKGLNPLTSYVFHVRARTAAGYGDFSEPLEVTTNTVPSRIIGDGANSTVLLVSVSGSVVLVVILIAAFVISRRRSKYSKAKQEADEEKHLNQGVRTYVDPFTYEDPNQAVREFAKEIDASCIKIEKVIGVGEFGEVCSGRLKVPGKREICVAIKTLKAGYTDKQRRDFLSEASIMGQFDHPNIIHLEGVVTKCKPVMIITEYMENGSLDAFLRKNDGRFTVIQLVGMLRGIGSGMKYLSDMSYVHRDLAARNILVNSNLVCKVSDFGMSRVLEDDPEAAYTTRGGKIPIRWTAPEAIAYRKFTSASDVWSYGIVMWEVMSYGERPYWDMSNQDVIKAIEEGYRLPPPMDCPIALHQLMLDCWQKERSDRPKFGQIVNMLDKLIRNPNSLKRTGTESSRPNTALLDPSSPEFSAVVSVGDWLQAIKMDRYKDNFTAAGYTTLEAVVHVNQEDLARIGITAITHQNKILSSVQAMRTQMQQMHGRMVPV
In short: as §1

ERK3 = target: T9, ERK3 (Homo sapiens, UniProt Q16659)
T9 construct: host or cells: E. coli host derived from BL21, T7 phage lysate
In short: as §1

ERK4 = target: T10, ERK4 (Homo sapiens, UniProt P31152)
T10 construct: host or cells: E. coli host derived from BL21, T7 phage lysate
In short: as §1

FAK = target: T11, FAK (Homo sapiens, UniProt Q05397)
T11 construct: host or cells: E. coli host derived from BL21, T7 phage lysate
T11 sequence (Q05397 whole entry): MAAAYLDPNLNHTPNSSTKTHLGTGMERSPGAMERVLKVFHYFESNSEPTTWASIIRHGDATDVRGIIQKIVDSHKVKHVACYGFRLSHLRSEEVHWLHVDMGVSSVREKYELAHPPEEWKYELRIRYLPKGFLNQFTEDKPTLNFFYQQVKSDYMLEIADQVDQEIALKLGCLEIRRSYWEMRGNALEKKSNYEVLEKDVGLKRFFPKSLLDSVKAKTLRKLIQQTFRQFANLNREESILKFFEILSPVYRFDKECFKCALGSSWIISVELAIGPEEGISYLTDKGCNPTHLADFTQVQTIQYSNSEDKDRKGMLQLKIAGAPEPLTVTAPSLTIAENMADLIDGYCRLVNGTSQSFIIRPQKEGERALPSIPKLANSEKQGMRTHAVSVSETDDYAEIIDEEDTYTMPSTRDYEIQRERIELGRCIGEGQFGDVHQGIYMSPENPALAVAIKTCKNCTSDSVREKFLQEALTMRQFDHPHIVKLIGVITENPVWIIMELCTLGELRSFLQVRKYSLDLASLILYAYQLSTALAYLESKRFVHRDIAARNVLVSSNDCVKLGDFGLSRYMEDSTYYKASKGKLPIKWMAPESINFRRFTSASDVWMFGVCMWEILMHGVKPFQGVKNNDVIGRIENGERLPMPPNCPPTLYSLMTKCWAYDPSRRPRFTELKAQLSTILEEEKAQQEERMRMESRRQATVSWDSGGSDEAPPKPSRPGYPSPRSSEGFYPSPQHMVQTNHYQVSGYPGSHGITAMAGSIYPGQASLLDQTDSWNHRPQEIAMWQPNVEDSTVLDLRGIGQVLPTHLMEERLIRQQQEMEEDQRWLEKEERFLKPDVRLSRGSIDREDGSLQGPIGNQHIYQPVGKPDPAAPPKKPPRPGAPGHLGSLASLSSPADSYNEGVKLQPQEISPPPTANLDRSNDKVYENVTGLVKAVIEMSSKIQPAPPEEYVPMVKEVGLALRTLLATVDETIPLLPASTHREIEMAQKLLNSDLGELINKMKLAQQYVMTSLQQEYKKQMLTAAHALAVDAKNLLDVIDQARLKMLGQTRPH
In short: as §1

FGFR3 (G697C) = target: T12, FGFR3 (G697C) (Homo sapiens, UniProt P22607, G697C)
T12 construct: host or cells: E. coli host derived from BL21, infected with T7 phage
In short: as §1

FGR = target: T13, FGR (Homo sapiens, UniProt P09769)
T13 construct: host or cells: E. coli host derived from BL21, infected with T7 phage
In short: as §1

FLT3 (D835H) = target: T14, FLT3 (D835H) (Homo sapiens, UniProt P36888, D835H)
T14 construct: host or cells: E. coli host derived from BL21, infected with T7 phage
In short: as §1

FLT3 (K663Q) = target: T15, FLT3 (K663Q) (Homo sapiens, UniProt P36888, K663Q)
T15 construct: host or cells: E. coli host derived from BL21, infected with T7 phage
In short: as §1

IKK-epsilon = target: T16, IKK-epsilon (Homo sapiens, UniProt Q14164)
T16 construct: host or cells: T7 phage in E. coli host derived from BL21
In short: as §1

MARK2 = target: T17, MARK2 (Homo sapiens, UniProt Q7KZI7)
T17 construct: host or cells: E. coli derived from BL21, infected with T7 phage
T17 sequence (Q7KZI7 whole entry): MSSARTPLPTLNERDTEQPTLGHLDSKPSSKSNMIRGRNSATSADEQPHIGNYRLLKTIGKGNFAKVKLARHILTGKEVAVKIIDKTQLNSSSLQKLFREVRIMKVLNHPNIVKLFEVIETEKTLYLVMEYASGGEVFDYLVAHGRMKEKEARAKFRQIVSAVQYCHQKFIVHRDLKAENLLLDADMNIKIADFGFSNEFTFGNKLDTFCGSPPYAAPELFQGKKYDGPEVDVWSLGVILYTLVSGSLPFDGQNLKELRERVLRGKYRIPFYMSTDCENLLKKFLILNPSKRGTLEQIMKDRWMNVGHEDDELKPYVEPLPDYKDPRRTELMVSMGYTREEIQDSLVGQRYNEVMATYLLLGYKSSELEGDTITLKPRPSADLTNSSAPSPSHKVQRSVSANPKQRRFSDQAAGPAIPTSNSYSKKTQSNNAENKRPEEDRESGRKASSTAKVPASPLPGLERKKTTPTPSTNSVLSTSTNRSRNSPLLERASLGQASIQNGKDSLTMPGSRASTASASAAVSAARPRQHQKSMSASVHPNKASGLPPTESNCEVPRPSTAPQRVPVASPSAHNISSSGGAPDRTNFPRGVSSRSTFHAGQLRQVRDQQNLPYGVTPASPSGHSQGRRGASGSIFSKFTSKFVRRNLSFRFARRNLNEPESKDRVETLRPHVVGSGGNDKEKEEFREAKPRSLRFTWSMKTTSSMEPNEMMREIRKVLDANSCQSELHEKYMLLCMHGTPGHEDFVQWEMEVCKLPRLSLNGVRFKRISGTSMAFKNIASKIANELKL
In short: as §1

PIM2 = target: T18, PIM2 (Homo sapiens, UniProt Q9P1W9)
T18 construct: purchased Ambit Biosciences Corp (KinomeScan); host or cells: E. coli host derived from BL21, infected with T7 phage
In short: as §1

PRKG2 = target: T19, PRKG2 (Homo sapiens, UniProt Q13237)
T19 construct: purchased Ambit Biosciences Corp (KinomeScan); host or cells: E. coli host derived from BL21, infected with T7 phage
T19 sequence (Q13237 whole entry): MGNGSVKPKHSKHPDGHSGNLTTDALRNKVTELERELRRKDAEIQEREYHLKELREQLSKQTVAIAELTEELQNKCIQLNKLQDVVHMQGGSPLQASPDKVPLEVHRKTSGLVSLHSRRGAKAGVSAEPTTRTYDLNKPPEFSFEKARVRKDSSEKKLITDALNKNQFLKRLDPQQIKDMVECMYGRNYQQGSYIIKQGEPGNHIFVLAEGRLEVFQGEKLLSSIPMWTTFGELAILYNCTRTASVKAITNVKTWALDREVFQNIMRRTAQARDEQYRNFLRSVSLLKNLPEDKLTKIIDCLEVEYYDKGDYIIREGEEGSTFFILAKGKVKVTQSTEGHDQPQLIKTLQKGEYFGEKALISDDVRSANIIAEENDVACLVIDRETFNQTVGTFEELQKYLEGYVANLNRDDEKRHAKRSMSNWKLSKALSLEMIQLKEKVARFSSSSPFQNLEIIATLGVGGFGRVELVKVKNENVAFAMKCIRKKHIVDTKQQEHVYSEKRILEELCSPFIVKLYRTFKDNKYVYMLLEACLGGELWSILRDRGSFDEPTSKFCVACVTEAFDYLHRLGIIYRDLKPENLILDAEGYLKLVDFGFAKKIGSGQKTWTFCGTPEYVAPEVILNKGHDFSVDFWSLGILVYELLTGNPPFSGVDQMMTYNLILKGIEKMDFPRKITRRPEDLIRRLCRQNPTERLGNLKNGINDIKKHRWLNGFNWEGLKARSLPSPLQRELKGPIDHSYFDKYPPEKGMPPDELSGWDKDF
In short: as §1

TIE1 = target: T20, TIE1 (Homo sapiens, UniProt P35590)
T20 construct: host or cells: E. coli host derived from the BL21 strain, T7 phage lysate
In short: as §1

TTK = target: T21, TTK (Homo sapiens, UniProt P33981)
T21 construct: purchased Ambit Biosciences Corp (KinomeScan); host or cells: E. coli host derived from the BL21 strain (T7 phage lysate)
In short: as §1

ULK1 = target: T22, ULK1 (Homo sapiens, UniProt O75385)
T22 construct: purchased Ambit Biosciences Corp (KinomeScan); host or cells: E. coli host derived from the BL21 strain (T7 phage lysate)
In short: as §1

YANK3 = target: T23, YANK3 (Homo sapiens, UniProt Q86UX6)
T23 construct: purchased Ambit Biosciences Corp (KinomeScan); host or cells: E. coli host derived from the BL21 strain (T7 phage lysate)
T23 sequence (Q86UX6 whole entry): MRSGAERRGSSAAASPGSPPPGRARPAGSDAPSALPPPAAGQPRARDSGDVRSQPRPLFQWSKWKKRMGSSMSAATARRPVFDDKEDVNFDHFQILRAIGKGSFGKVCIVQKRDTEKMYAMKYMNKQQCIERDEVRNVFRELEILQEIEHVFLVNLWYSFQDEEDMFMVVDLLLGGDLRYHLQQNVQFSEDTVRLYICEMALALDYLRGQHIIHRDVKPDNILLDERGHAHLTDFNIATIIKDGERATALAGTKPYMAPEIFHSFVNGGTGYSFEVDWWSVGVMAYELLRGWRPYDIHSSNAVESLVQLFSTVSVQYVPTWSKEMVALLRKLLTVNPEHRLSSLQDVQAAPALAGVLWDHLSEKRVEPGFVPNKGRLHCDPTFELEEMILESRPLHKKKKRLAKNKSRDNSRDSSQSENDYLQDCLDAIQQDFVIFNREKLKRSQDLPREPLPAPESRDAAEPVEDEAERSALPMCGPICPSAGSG
In short: as §1

C#Cc1cccc(Nc2ncnc3cc(OC)c(OCCCN4CCOCC4)cc23)c1 [NRC-2694, N-(3-ethylnylphenyl)-7-methoxy-6-[3-(4-morpholinyl)propoxy]-4-quinazolinamine]
% Ctrl @ 10000 nM (BRSK2): 33 % Ctrl
% Ctrl @ 10000 nM (CAMK1): 65 % Ctrl
% Ctrl @ 10000 nM (CDK11): 87 % Ctrl
% Ctrl @ 10000 nM (CIT): 5.0 % Ctrl
% Ctrl @ 10000 nM (DCAMKL3): 14 % Ctrl
% Ctrl @ 10000 nM (DRAK1): 51 % Ctrl
% Ctrl @ 10000 nM (EGFR (G719S)): 0 % Ctrl
% Ctrl @ 10000 nM (EPHA4): 64 % Ctrl
% Ctrl @ 10000 nM (ERK3): 10 % Ctrl
% Ctrl @ 10000 nM (ERK4): 3.7 % Ctrl
% Ctrl @ 10000 nM (FAK): 85 % Ctrl
% Ctrl @ 10000 nM (FGFR3 (G697C)): 82 % Ctrl
% Ctrl @ 10000 nM (FGR): 19 % Ctrl
% Ctrl @ 10000 nM (FLT3 (D835H)): 8.1 % Ctrl
% Ctrl @ 10000 nM (FLT3 (K663Q)): 56 % Ctrl
% Ctrl @ 10000 nM (IKK-epsilon): 75 % Ctrl
% Ctrl @ 10000 nM (MARK2): 70 % Ctrl
% Ctrl @ 10000 nM (PIM2): 83 % Ctrl
% Ctrl @ 10000 nM (PRKG2): 40 % Ctrl
% Ctrl @ 10000 nM (TIE1): 52 % Ctrl
% Ctrl @ 10000 nM (TTK): 48 % Ctrl
% Ctrl @ 10000 nM (ULK1): 100 % Ctrl
% Ctrl @ 10000 nM (YANK3): 100 % Ctrl
